Source: patent US10933038B2, “Use of (benzenesulfonamido) benzamide compounds for inhibiting liver fibrosis” (Hebei Medfaith Pharmaceutical Technology Co., Ltd., priority 2015, dated 2021)

Legend:
[1] = test system: COL1A1 promoter; assay: dual-luciferase reporter assay of COL1A1 promoter activity in LX2 cells; type: cell-based, human; conditions: TGF-β1 2 ng/ml, 1, 5 and 10 μmol/L, 24 h
Method: At 37° C., 5% CO2, human hepatic stellate cells LX2 were cultured in DMEM medium containing 10% fetal bovine serum (Gibco). After the cells reached a confluence of about 95%, the cells were spread onto a 96-well plate at 2×10^4 cells per well. After the cells reached a confluence of about 90%, the cells were subjected to serum-free culture in DMEM medium (Gibco) containing no fetal bovine serum for 24 h. […] The cells were further cultured for 24 h. In accordance with the operations described in the instruction of Dual-Glo™ Luciferase Assay System, the medium was discarded, and the cells were washed with PBS once. Cells were lysed by the addition of 1×PLB (20 μL/well) (within 15 min), luciferase substrate (50 μL/well) was added for assay, and a stop solution (50 μL/well) was added for assay.

[2] = test system: ANIT-induced liver injury; assay: alpha-naphthylisothiocyanate (ANIT)-induced liver injury model, HE staining; type: in vivo, mouse; conditions: 400 mg/kg intragastric, ANIT 75 mg/kg, 48 h after induction
Method: After further administration for 2 days (i.e. after induction with ANIT for 48 h), liver tissues were harvested, and subjected to pathological section and HE staining.

[3] = test system: TGF-β1-induced LX2 cells; assay: Western blot assay in TGF-β1-induced LX2 cells; type: cell-based, human; conditions: TGF-β1 (2 ng/ml)-induced LX2 cells, 1, 5 and 10 μmmol/L, 24 h
Method: (§1) In DMEM (Gibco) medium containing 10% fetal bovine serum, LX2 cells were cultured at 37° C., 5% CO2. The cells were spread on a 6-well plate at 1×10^5 cells per well. After culture for 24 h, the original medium was discarded, the cells were washed with PBS once, and DMEM (Gibco) medium without 10% fetal bovine serum was added. […] After further culture for 24 h, the samples were taken.
Proteins in LX2 cells were extracted with RAPI lysis solution (containing 1% PMSF), and the protein concentration was determined by BCA method. The sample was loaded at 20 μg/20 μL, subjected to polyacrylamide gel electrophoresis, transferred to a membrane, blocked with 5% skim milk, incubated with a primary antibody, washed with PBST, incubated with a secondary antibody, and imaged with ChemiImager 5500 imaging system.

[4] = test system: BDL model rat; assay: real-time PCR of genes associated with liver fibrosis in liver tissue of BDL rats; type: in vivo; conditions: 100 mg/kg i.p., 14 days
Method: (§2) SD male rats (with a body weight of 180-200 g) were randomly divided into sham operation group, BDL model group and 16-4 administration group, wherein sham operation group included 6 rats, BDL model group included 8 rats, and 16-4 administration group included 6 rats. Animals were fasted for 12 hours before surgery. After anesthetization with isoflurane, the abdomen of rat was opened under aseptic conditions, the liver was lifted, the duodenum was pulled aside, and 2-3 cm common bile duct was separate. Ligations were performed twice with silk thread No. 000 at the place proximal to duodenum and the place proximal to porta hepatis, respectively. The common bile duct was cut off at the middle of the two ligation places. After the liver was put back, the cut was sutured. In sham operation group, the abdomen was just opened, and then sutured. After recovery from anesthesia, the animals were subjected to normal diet, with free access to water. […]
Liver tissues (80-100 mg) were taken from the rats of each group in Example 6, and 1 mL TRizol was added. […] The cDNA obtained, sterile water, Roche FastStart Universal Probe Master (Rox) and ABI TaqMan probes were used to prepare a 20 μL reaction system, which was analyzed by ABI 7500 Fast Real-Time PCR System.

[5] = test system: BDL model rat; assay: Masson staining of liver tissue of BDL rats; type: in vivo; conditions: 100 mg/kg i.p., 14 days
Method: as §2, with “water. 2 days after surgery, the compound 16-4 (100 mg/kg) was intraperitoneally injected to 16-4 administration group, and normal saline was intraperitoneally injected to sham operation group and BDL model group, once a day. After administration for 14 days, samples such as urine, blood, bile, liver, kidney and ileum were collected from the animals after being fasted for 12 hours.” for “water.”

[6] = test system: BDL model rat; assay: hydroxyproline content in liver tissue of BDL rats; type: in vivo; conditions: 100 mg/kg i.p., 14 days
Method: as §2
(2) Hydroxyproline is specific to collagen fibrils, and the content of hydroxyproline can reflect the extent of liver fibrosis. Liver tissue samples (80-100 mg) were taken from the rats of each group in Example 6, and in accordance with the instruction of Hydroxyproline Assay Kit (purchased from Nanjing Jiancheng Bioengineering Institute), the content of hydroxyproline in the liver tissues was determined.

[7] = test system: Kunming mice; assay: safety in Kunming mice, single intragastric dose, 14 days observation; type: in vivo; conditions: 50-2000 mg/kg; for change in body weight (relative body weight Day 14/Day 1): 14 days after administration; for death / signs of intoxication: 14 days observation
Method: In the example, the compounds 16-4 and 17-15 were tested for their safety in Kunming mice.
Kunming mice (with a body weight of 18-22 g) were randomly divided into control group, 16-4 administration group, and 17-15 administration group, with 4 mice for each group, administered at a dose of 0 mg/kg, 50 mg/kg, 500 mg/kg, 1000 mg/kg and 2000 mg/kg. At the first day of experiment, drugs were intragastrically administered to 16-4 administration group and 17-15 administration group, and normal saline was administered to control group. The body weight and physical conditions of mice (for example, being short of breath or not, having bleeding spots in skin or not, etc.) and whether mice died or not were recorded every day. After observation for 14 days, the mice were sacrificed.

[8] = test system: BDL model rat; assay: HE staining of liver tissue of BDL rats; type: in vivo; conditions: 100 mg/kg i.p., 14 days
Method: (§3) SD male rats (with a body weight of 180-200 g) were randomly divided into sham operation group, BDL model group and 16-4 administration group, wherein sham operation group included 6 rats, BDL model group included 8 rats, and 16-4 administration group included 6 rats. Animals were fasted for 12 hours before surgery. After anesthetization with isoflurane, the abdomen of rat was opened under aseptic conditions, the liver was lifted, the duodenum was pulled aside, and 2-3 cm common bile duct was separate. Ligations were performed twice with silk thread No. 000 at the place proximal to duodenum and the place proximal to porta hepatis, respectively. The common bile duct was cut off at the middle of the two ligation places. After the liver was put back, the cut was sutured. In sham operation group, the abdomen was just opened, and then sutured. After recovery from anesthesia, the animals were subjected to normal diet, with free access to water. 2 days after surgery, the compound 16-4 (100 mg/kg) was intraperitoneally injected to 16-4 administration group, and normal saline was intraperitoneally injected to sham operation group and BDL model group, once a day. After administration for 14 days, samples such as urine, blood, bile, liver, kidney and ileum were collected from the animals after being fasted for 12 hours.
The liver tissue samples were taken from rats of each group in Example 6, and the rats were fasted for 12 hours before taking samples. The rats were anesthetized with 10% chloral hydrate and the liver tissue was taken. The hepatic lobar tissue blocks were cut off and fixed in 4% neutral formaldehyde solution. By carrying out the steps such as dehydration, paraffin embedding, slicing and baking, paraffin slices were made. Hematoxylin-eosin (HE) staining solution was used for staining, and changes in pathological structure of rat liver tissue were observed.

[9] = test system: BDL model rat; assay: Western blot of proteins associated with liver fibrosis in liver tissue of BDL rats; type: in vivo; conditions: 100 mg/kg i.p., 14 days
Method: as §2, with “water. 2 days after surgery, the compound 16-4 (100 mg/kg) was intraperitoneally injected to 16-4 administration group, and normal saline was intraperitoneally injected to sham operation group and BDL model group, once a day.” for “water.”
Liver tissues (80-100 mg) were taken from the rats of each group in Example 6, and 1 mL RAPI lysis solution (containing 1% PMSF) was added. […] The supernatant was taken, and the protein concentration was determined by BCA method. […]

[10] = test system: TGF-β1-induced LX2 cells; assay: real-time PCR assay in TGF-β1-induced LX2 cells; type: cell-based, human; conditions: TGF-β1 (2 ng/ml)-induced LX2 cells, 1, 5 and 10 μmmol/L, 24 h
Method: as §1
In accordance with the TRizol method, the total RNA in LX2 cells were extracted, and in accordance with the operations described in the instruction of Roche Transcriptor First Strand cDNA Synthesis Kit, the total RNA of LX2 was reverse transcribed into cDNA. The cDNA obtained, sterile water, Roche FastStart Universal Probe Master (Rox) and ABI TaqMan probes (COL1A1, TGF-β1, MMP2) were used to prepare a 20 μL reaction system, which was analyzed by ABI 7500 Fast Real-Time PCR System.

[11] = test system: BDL model rat; assay: serum liver function in BDL model rat; type: in vivo; conditions: 100 mg/kg i.p. once a day for 14 days
Method: as §3
Blood samples were taken from rats of each group in Example 6, and the rats were fasted for 12 h before taking samples. The rats were anesthetized with 10% chloral hydrate, and blood was collected via aorta ventralis, on standing at room temperature for 1 h, and centrifuged at 3000 rpm for 5 min. The serum was tested for serum biochemical indexes.

| Compound | activity of COL1A1 promoter (relative luciferase activity) [1] | liver injury (HE staining of liver tissue slices) compared to ANIT-induced group [2] | expression of COL1A1, TGF-β1, MMP2 and α-SMA protein [3] | expression of genes associated with liver fibrosis (COL1A1, TGF-β1, MMP2, α-SMA (ACTA2), TIMP1, TIMP2 and SPP1) [4] | fibrosis of liver tissues (Masson staining) [5] | content of hydroxyproline in rat liver tissues [6] | change in body weight (relative body weight Day 14/Day 1) [7] | death [7] | signs of intoxication [7] | bile duct proliferation [8] | pathological structure of the liver tissues [8] | tissue necrosis [8] | expression of COL1A1, TGF-β1, MMP2 and α-SMA protein [9] | expression levels of mRNA of COL1A1, TGF-β1 and MMP2 [10] | liver function of BDL rats [11] | alanine aminotransferase ALT ([11]; serum, BDL rat, n = 6) [U/L] | alkaline phosphatase ALP ([11]; serum, BDL rat, n = 6) [U/L] | γ-glutamyltransferase γ-GGT ([11]; serum, BDL rat, n = 6) [U/L] |
| --- | --- | --- | --- | --- | --- | --- | --- | --- | --- | --- | --- | --- | --- | --- | --- | --- | --- | --- |
| O=C(Nc1cc(Cl)c(Cl)c(Cl)c1)c1ccccc1NS(=O)(=O)c1cccc([N+](=O)[O-])c1 [16-4, N-(3,4,5-trichlorophenyl)-2-(3-nitrobenzenesulfonamido) benzamide] | inhibit the activity of COL1A1 promoter in a dose-dependent manner | had the liver injury improved | significantly inhibit | significantly reduce | significantly inhibit the fibrosis of liver tissues | significantly reduce | no significant decrease in body weight | no death occurred | no signs of intoxication were observed | significantly inhibited bile duct proliferation | significantly improve | significantly reduced tissue necrosis | significantly inhibit | significantly inhibit | could improve the liver function | 68.20 ± 11.86 | 383.60 ± 56.45 | 27.40 ± 10.26 |
| O=C(Nc1ccc(Cl)c(Cl)c1)c1ccccc1NS(=O)(=O)c1cccc(OC(F)(F)F)c1 [17-15, N-(3,4-dichlorophenyl)-2-(3-trifluoromethoxybenzenesulfonamido) benzamide] | inhibit the activity of COL1A1 promoter in a dose-dependent manner |  | significantly inhibit |  |  |  | no significant decrease in body weight | no death occurred | no signs of intoxication were observed |  |  |  |  | significantly inhibit |  |  |  |  |
